Calls of active or inactive are those of the source.
Assays:
Cytochrome P450 1A2 = target: T1, Cytochrome P450 1A2 (Homo sapiens, UniProt P05177);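 note: PubChem cytochrome P450 panel assay, CYP1A2 panel member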
T1 sequence (P05177 whole entry): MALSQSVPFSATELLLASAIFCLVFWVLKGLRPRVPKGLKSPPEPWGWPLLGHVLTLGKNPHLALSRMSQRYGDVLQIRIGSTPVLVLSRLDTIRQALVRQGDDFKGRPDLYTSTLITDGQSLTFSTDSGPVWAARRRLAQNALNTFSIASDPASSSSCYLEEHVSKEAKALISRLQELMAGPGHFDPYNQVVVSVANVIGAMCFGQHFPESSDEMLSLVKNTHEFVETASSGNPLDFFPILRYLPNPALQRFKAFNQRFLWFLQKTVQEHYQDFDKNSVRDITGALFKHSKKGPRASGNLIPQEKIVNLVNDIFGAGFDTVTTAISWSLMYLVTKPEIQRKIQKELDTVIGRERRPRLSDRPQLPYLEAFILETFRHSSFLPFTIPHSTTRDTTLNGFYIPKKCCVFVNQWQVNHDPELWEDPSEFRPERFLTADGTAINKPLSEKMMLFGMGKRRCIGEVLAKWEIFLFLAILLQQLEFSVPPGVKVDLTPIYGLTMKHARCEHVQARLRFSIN

[1] = target: E3 ubiquitin-protein ligase Mdm2 (Homo sapiens, UniProt Q00987); assay: enhancers of MDM2-luciferase reporter signal, concentration-effect titration, project on inhibitors of MDM2 ubiquitin ligase, cellular assay, luminescent readout, 384-well plate format (AID 1394); format: functional;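 note: MDM2 E3 inhibitors raise luminescence so EC50 is for signal enhancement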
E3 ubiquitin-protein ligase Mdm2, sequence (Q00987 whole entry): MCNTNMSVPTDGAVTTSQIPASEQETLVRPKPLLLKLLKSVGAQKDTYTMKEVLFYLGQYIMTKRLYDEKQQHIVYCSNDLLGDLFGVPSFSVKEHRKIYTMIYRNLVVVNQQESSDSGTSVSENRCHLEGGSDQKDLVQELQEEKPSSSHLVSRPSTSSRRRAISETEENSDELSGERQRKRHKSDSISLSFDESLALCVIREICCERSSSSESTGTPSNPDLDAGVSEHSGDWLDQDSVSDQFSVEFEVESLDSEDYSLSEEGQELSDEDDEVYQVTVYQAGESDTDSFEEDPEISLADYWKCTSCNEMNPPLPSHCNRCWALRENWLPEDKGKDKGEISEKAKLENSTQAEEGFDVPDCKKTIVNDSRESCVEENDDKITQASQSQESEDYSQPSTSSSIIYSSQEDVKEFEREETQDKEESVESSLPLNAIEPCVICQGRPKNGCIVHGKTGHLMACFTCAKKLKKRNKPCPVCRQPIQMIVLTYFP

Cytochrome P450 2C19 = Cytochrome P450 2C19 (Homo sapiens, UniProt P33261); assay: Cytochrome panel assay with activity outcomes. Panel member name: p450-cyp2c19 Compounds with AC50 equal or less than 10 uM are considered active; format: functional; details: read-out: AC50
Cytochrome P450 2C19, sequence (P33261 whole entry): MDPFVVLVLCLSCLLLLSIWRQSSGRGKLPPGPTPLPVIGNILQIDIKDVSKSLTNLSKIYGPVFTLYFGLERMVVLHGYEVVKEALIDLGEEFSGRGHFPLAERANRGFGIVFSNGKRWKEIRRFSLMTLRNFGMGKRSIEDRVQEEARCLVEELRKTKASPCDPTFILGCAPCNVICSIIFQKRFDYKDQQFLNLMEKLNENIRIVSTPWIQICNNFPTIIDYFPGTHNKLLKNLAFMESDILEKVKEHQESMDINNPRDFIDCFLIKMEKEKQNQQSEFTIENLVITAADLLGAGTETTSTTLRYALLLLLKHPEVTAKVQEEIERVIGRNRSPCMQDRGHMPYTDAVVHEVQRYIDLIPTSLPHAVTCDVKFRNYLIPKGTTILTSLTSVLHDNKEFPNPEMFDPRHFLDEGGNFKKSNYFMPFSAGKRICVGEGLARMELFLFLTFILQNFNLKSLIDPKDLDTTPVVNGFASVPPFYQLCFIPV

[2] = Vero cell cytotoxicity, dose response, cytotoxicity control for Vif-APOBEC3G degradation inhibitor project, Vero cells (AID 1117358); format: functional; details: Human immunodeficiency virus 1, Vero
[3] = growth suppression of PTEN-null colon cells, dose response, cell-based, HCT116 PTEN knockout (AID 1047); format: functional;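 note: HCT116 colon tumor cells with PTEN knocked out; cells exposed to compound for 60 hours before readout; potency for loss of cell viability measured by luminescence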
Vero = assay: host cell cytotoxicity of antiviral hits, dose response, cytotoxicity control for West Nile virus antiviral project, secondary assay (AID 1650); format: functional; details: Chlorocebus sabaeus
[4] = growth suppression of beta-catenin-knockout colon cells, dose response, cell-based, HCT116, human colon tumor (AID 1045); format: functional;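 note: HCT116 colon tumor cells with beta catenin knocked out; cells exposed to compound for 60 hours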
[5] = inhibitors of Vif binding to APOBEC3G peptide, primary screen, biochemical, TR-FRET, GST-Vif 1-94, biotin-A3G peptide, dose response retest (AID 1117319); format: functional;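 note: TR-FRET signal of purified GST-Vif binding a biotinylated A3G peptide; inhibitors lower the FRET signal by blocking Vif and A3G binding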
[6] = target: T2, Polyadenylate-binding protein 1 (Homo sapiens, UniProt P11940); assay: PABP1 MLLE–PAM2 binding inhibitor potency, dose response, biochemical, fluorescence polarization, FITC-PAM2 peptide (AID 602259); format: functional; details: read-out: IC50_Mean
T2 sequence (P11940 whole entry): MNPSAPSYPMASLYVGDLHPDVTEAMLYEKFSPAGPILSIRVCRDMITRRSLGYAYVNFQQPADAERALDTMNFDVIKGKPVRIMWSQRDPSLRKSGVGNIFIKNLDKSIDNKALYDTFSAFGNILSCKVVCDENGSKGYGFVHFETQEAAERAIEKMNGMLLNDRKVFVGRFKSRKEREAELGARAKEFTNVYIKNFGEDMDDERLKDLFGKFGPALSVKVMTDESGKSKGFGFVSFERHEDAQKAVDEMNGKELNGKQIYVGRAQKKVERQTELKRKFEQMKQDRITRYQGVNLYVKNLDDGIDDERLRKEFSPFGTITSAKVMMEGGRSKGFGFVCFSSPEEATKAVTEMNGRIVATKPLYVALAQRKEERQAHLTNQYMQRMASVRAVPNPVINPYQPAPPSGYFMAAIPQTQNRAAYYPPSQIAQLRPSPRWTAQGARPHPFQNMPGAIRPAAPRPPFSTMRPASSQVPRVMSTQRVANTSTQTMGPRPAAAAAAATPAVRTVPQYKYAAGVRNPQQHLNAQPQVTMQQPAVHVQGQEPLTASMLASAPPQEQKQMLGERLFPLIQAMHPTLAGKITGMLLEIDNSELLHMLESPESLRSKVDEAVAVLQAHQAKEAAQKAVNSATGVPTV

[7] = RKO cell viability reduction, dose response, CellTiter-Glo luminescence (AID 1117322); format: functional
[8] = target: T3, Long-chain-fatty-acid--AMP ligase FadD28 (Mycobacterium tuberculosis, UniProt P9WQ59); assay: Fluorescence polarization aasay to screen for inhibitors that compete for the binding of FadD28 to a bisubstrate Measured in Biochemical System Using Plate Reader - 2147-01_Inhibitor_Dose_CherryPick_Activity.; format: functional, Mycobacterium tuberculosis H37Rv
T3 sequence (P9WQ59 whole entry): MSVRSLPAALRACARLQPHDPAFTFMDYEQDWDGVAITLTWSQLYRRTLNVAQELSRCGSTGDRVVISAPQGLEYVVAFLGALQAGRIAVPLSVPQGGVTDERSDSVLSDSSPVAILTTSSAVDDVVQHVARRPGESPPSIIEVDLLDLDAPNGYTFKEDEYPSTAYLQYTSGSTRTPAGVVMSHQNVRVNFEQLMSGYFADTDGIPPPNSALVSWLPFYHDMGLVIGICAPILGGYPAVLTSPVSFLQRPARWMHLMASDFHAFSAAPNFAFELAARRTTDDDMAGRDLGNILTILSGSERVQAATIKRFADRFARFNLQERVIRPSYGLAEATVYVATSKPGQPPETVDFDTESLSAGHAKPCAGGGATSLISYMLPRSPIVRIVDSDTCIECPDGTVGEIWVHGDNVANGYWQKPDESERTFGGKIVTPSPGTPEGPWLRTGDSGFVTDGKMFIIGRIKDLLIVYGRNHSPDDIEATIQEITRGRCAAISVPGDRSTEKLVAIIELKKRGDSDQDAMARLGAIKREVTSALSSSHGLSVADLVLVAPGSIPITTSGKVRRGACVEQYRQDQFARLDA

[9] = HeLa 4N DNA content increase, dose response, cell-based, IC50 (AID 1117351); format: functional
[10] = CellTiter-Glo luminescent dose response of DLD-1 viability loss (AID 1117352); format: functional
[11] = target: T2, Polyadenylate-binding protein 1; assay: PABP1 MLLE–PAM2 interaction inhibitors, dose response, miRNA deadenylation inhibitor project, biochemical, fluorescence polarization, Cy5-PAM2 peptide, secondary (AID 602260); format: functional; details: read-out: IC50_Mean
[12] = cytotoxicity toward HT-29 cells – cell-based, CellTiter-Glo luminescence, IC50, dose response (AID 1117330); format: functional
[13] = target: T4, Microphthalmia-associated transcription factor (Homo sapiens, UniProt O75030); assay: TRPM1 promoter luciferase signal decrease, dose response, MITF inhibitor project, cell-based, SK-MEL-5, cherry-picked, set 3 (AID 493073); format: functional
T4 sequence (O75030 whole entry): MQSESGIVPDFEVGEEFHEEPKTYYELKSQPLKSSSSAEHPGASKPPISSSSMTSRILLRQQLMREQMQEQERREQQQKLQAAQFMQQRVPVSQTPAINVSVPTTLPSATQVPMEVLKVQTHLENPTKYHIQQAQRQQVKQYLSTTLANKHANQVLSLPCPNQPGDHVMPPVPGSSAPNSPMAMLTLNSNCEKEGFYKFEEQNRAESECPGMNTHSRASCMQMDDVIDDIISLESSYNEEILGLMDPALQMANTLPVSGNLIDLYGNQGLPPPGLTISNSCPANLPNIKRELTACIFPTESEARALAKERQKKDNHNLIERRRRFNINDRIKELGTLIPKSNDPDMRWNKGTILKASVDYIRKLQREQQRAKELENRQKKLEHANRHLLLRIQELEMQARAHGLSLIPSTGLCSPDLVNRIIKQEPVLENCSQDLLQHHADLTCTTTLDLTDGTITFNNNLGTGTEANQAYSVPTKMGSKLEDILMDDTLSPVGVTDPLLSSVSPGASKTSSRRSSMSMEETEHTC

[14] = HeLa 2N DNA content increase, dose response, cell-based, IC50 (AID 1117349); format: functional
[15] = Concentration-dependent survival of SW480 colon cancer line, luminescence detection with CellTiter-Glo, half-maximal inhibitory concentration (AID 1117338); format: functional
[16] = target: T5, Histone-lysine N-methyltransferase NSD2 (Homo sapiens, UniProt O96028); format: biochemical
T5 sequence (O96028 whole entry): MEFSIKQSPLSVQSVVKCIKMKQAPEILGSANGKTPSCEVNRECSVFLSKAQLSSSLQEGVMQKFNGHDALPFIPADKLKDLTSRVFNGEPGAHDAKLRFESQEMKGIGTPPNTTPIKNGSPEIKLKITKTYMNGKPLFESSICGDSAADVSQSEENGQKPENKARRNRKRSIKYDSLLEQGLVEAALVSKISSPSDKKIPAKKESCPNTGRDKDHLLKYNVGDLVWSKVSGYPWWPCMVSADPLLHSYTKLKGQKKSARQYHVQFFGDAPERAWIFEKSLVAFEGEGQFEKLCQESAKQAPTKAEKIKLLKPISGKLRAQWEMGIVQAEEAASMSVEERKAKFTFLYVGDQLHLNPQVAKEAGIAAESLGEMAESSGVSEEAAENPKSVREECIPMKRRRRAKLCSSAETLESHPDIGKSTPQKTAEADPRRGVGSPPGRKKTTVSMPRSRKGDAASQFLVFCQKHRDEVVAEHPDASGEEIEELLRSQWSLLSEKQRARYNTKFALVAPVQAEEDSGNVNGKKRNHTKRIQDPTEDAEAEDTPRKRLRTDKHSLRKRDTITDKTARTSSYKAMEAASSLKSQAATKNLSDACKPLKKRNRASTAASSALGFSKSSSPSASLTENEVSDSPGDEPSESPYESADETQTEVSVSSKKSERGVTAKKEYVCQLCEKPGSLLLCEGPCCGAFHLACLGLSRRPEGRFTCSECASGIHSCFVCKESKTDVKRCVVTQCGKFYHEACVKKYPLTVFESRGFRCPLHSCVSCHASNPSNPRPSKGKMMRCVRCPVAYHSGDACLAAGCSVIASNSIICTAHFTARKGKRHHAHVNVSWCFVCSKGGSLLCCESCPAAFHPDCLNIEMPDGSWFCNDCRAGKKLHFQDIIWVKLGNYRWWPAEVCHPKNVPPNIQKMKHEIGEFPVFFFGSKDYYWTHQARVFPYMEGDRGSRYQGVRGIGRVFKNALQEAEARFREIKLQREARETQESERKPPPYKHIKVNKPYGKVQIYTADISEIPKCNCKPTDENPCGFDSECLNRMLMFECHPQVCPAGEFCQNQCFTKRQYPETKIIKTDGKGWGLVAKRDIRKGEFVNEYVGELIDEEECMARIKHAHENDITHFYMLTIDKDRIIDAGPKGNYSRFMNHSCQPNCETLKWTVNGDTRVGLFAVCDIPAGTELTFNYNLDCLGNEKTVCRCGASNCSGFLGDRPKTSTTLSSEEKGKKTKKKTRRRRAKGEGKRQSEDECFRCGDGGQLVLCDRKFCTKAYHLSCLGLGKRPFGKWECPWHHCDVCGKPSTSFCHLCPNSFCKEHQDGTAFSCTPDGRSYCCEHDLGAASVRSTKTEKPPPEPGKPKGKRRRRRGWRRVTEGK

[17] = cytotoxicity toward HCT116 cells – cell-based, CellTiter-Glo luminescence, IC50, dose response (AID 1117332); format: functional; details: HCT-116
[18] = SNU-C1 cell viability reduction, dose response, CellTiter-Glo luminescence (AID 1117323); format: functional, cell-based
[19] = cytotoxicity toward Colo320 cells – cell-based, CellTiter-Glo luminescence, IC50, dose response (AID 1117334); format: functional; details: COLO 320

CCN(CC(=O)Nc1ccc(N2CCOCC2)cc1)Cc1nc2ccccc2c(=O)[nH]1
AC50 (Cytochrome P450 1A2): 20 µM (inconclusive) | EC50 [1]: 0.03 µM (not active) | AC50 (Cytochrome P450 2C19): 22.4 µM (inconclusive)

CC(C)(C)c1ccc(-c2nnc(SCCC#N)n2C2CCCC2)cc1
CC50 [2]: > 40 µM (active)

COc1ccc(-c2cc(-c3ccc(C)cc3)nc(SCc3nnc(-c4ccccc4)o3)c2C#N)cc1OC
EC50 [3]: 4.41 µM (active) | CC50 (Vero): 14.1 µM (active) | EC50 [4]: 4.36 µM (active)

CC(C)NC(=O)C1CCCN(S(=O)(=O)c2cccs2)C1 (configuration not stated)
IC50 [5]: > 100 µM (active)

CC[n+]1c(-c2ccccc2)c2cc(N)ccc2c2ccc(N)cc21 [HOMIDIUM BROMIDE]
IC50 [6]: 40.4 µM (inactive) | IC50 [7]: 3.35 µM (active) | AC50 [8]: 27.4 µM (active) | IC50 [9]: > 10 µM (inactive) | IC50 [10]: > 20 µM (inactive) | IC50 [11]: > 66 µM (inactive) | IC50 [12]: > 20 µM (inactive) | AC50 [13]: 2.42 µM (active) | IC50 [14]: > 10 µM (inactive) | IC50 [15]: > 20 µM (inactive) | AC50 [16]: 0.293 µM (active) | IC50 [17]: 4.44 µM (active) | IC50 [18]: > 20 µM (inactive) | IC50 [19]: > 20 µM (inactive)
